Laboratory results taken from patent publication US6653478B2, “Substituted benzimidazol-2-ones as vasopressin receptor antagonists and neuropeptide Y modulators” (Ortho-McNeil Pharmaceutical, Inc., priority 2000, dated 2003).
Structures can show the parent of a compound that is named as a salt.

Tests used:
human V1b receptor = biological target: T1, human V1b receptor (Homo sapiens, UniProt P47901); experiment: V1b binding assay (3H-AVP displacement, HEK-293 membranes); design: expressed in transfected cells; host or cells: HEK-293 (membranes); settings: for inhibition at 10 µM: read-out: V1b % Inh @10
T1 sequence (P47901 1-424): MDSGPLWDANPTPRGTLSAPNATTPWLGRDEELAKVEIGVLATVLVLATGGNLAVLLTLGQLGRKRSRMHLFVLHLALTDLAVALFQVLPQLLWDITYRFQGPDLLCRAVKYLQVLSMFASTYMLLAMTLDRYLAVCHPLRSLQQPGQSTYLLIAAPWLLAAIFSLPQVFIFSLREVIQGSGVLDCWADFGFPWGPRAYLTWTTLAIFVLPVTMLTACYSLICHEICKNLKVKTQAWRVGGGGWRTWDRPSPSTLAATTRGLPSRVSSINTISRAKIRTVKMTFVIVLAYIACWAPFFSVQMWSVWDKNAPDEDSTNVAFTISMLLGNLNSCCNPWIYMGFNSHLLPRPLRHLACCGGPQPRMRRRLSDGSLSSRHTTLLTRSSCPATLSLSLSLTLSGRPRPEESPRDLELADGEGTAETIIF
Summary of the method: (§1)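 Membranes from transfected HEK-293 cells incubated 1 h at room temperature with ³H-AVP (10,000 cpm) in 50 mM Tris, 5 mM MgCl2, 0.1% BSA, pH 7.5 plus protease inhibitors. Non-specific binding set with 1.25 μM AVP. Bound tracer collected on PEI-soaked GF/C filters and counted by scintillation.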

human V1a receptor [1] = biological target: T2, human V1a receptor (Homo sapiens, UniProt P37288); experiment: V1a functional assay, intracellular calcium mobilization in transfected HEK-293 cells (FLIPR); design: expressed in transfected cells; host or cells: HEK-293; settings: challenge 1 nM AVP; read-out: Cell-Based Functional activity V1a IC50
Experimental: V1a, V1b or V2 Functional Assay
HEK-293 cells were grown in DMEM media supplemented with 10% FBS and glutamine (Gibco BRL, Grand Island, N.Y.). Once transfected the cells were passed biweekly by trypsinization and seeded into 96 well plates at 33,000 cells per well. HEK-293 were transfected with human V1a, V1b or V2 DNA using DMRIE-C reagent from Life Technologies, Inc., Grand Island, N.Y. Cells were tested for their responsiveness to vasopressin 48 hours after transfection. Stable lines were generated by selecting cells grown in culture media containing geneticin (500 μg/ml, Life Technologies).
Intracellular calcium mobilization was measured in HEK-293 cells transfected to express either human V1a, oxytocin or V1b receptors. Cells were plated into black 96-well Packard Clear-View plates 4 to 7 days prior to use. The cells were loaded with fluo-3 AM (Molecular Probes, Inc., Eugene, Oreg.) in buffer (25 mM Hepes, 125 mM NaCl, 1 gm/l glucose, 0.1% BSA, 5 mM KCl, 0.5 mM CaCl2, 0.5 mM MgCl2, pH 7.45) containing Pluronic (Molecular Probes) Cells were incubated with 5 μM fluo-3 AM for 1 hour shielded from light at room temperature. Intracellular fluorescence was measured using FLIPR (fluorometric imaging plate reader; Molecular Devices, Inc., Sunnyvale, Calif.). The FLIPR protocol called for images to be collected at one second intervals with 50 μl of the test compound added after the initial 10 images. An additional 70 images were then taken to detect any compound agonistic activity. FLIPR then added 50 μl of agonist peptide and collected a final 40 images for quantitating compound antagonistic activity. V1a- and V1b-expressing HEK cells were challenged with 1 nM and 0.5 nM AVP, respectively. Oxytocin-expressing HEK cells were challenged with 0.5 nM oxytocin (Peninsula Labs).
The data from the cAMP accumulation and the calcium mobilization assays are expressed as IC50 values as determined from dose response curves.

human V2 receptor = human V2 receptor (Homo sapiens, UniProt P30518); experiment: V2 binding assay (3H-AVP displacement, HEK-293 membranes); design: expressed in transfected cells; host or cells: HEK-293 (membranes); settings: for inhibition at 1 µM: read-out: V2@1.0, % Inh
Summary of the method: as §1

human V1a receptor [2] = biological target: T2, human V1a receptor; experiment: V1a binding assay (3H-AVP displacement, HEK-293 membranes); design: expressed in transfected cells; host or cells: HEK-293 (membranes)
Summary of the method: as §1

T2 sequence (P37288 whole entry): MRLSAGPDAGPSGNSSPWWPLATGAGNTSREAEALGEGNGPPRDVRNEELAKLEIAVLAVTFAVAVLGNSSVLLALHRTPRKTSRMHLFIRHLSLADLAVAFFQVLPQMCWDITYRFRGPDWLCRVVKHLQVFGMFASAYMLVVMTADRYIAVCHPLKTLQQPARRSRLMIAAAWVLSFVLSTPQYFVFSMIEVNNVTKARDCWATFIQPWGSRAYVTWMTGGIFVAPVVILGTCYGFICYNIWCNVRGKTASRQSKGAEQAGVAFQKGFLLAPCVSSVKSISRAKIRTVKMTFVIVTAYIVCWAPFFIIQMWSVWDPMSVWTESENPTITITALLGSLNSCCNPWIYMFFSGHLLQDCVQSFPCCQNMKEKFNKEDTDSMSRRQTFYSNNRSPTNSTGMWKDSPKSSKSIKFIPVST

| Compound | IC50 (human V1b receptor) [nM] | IC50 (human V1a receptor [1]) [nM] | IC50 (human V2 receptor) [nM] | IC50 (human V1a receptor [2]) [nM] | V1b % Inh @10 (human V1b receptor; 10 μM compound) [%@10] | V2@1.0, % Inh (human V2 receptor; 1.0 μM compound) [%] | inhibition at 1 µM (human V1b receptor; 1.0 μM compound, read-out: V1b@1.0, % Inh) [%] | inhibition at 1 µM (human V2 receptor; 1.0 μM compound) [%] | inhibition at 10 µM (human V1b receptor; 10 μM compound) [%] |
| --- | --- | --- | --- | --- | --- | --- | --- | --- | --- |
| 1-[(N1-Piperidinocarbothioyl-(1-L-carboxymethyl-2-phenylamino)-4-yl]-3-(3-aminopropyl)-1,3-dihydrobenzimidazol-2-one Hydrochloride [Compound 57] | – | 482 | – | 260 | 25 | 0 | – | – | – |
| CCN(CC)CCn1c(=O)n(C2CCN(C(=S)NC(c3ccccc3)c3ccccc3)CC2)c2ccccc21 [Compound 35, 1-(N1-Piperidinocarbothioyldiphenylmethylamino-4-yl)-3-(2-diethyaminoethyl)-1,3-dihydrobenzimidazol-2-one] | – | 458 | – | 75 | – | – | 47 | 44 | – |
| CCN(CC)CCn1c(=O)n(C2CCN(C(=S)NC(Cc3ccccc3)C(=O)OC)CC2)c2ccccc21 [Compound 42, 1-(N1-Piperidinocarbothioyl-(2-phenyl-1-L-carboxymethyl)amino-4-yl)-3-(2-diethyaminoethyl)-1,3-dihydrobenzimidazol-2-one] | – | 810 | – | 38 | – | – | – | 0 | 37 |

Continued, values first:

| IC50 (human V1b receptor) [nM] | IC50 (human V1a receptor [1]) [nM] | IC50 (human V2 receptor) [nM] | IC50 (human V1a receptor [2]) [nM] | V1b % Inh @10 (human V1b receptor; 10 μM compound) [%@10] | V2@1.0, % Inh (human V2 receptor; 1.0 μM compound) [%] | inhibition at 1 µM (human V1b receptor; 1.0 μM compound, read-out: V1b@1.0, % Inh) [%] | inhibition at 1 µM (human V2 receptor; 1.0 μM compound) [%] | inhibition at 10 µM (human V1b receptor; 10 μM compound) [%] | Compound |
| --- | --- | --- | --- | --- | --- | --- | --- | --- | --- |
| 5100 | 139 | 1250 | 27 | – | – | – | – | – | NCCCn1c(=O)n(C2CCN(C(=S)NC(c3ccccc3)c3ccccc3)CC2)c2ccccc21 [Compound 55, 1-[(N1-Piperidinocarbothioyldiphenylmethylamino)-4-yl]-3-(3-aminopropyl)-1,3-dihydrobenzimidazol-2-one Monohydrochloride] |
| 4100 | 240 | – | 32 | – | – | – | 18 | 62 | N=C(N)NCCCn1c(=O)n(C2CCN(C(=S)NC(c3ccccc3)c3ccccc3)CC2)c2ccccc21 [Compound 59, 1-[(N1-Piperidinocarbothioyldiphenylmethylamino)-4-yl]-3-(3-guanidinopropyl)-1,3-dihydrobenzimidazol-2-one] |
